Experimental data from patent US20080085315A1, “Amorphous ezetimibe and the production thereof” (priority 2006, published 2008).

Assays:
[1] = Pharmacokinetics in fasted male Sprague Dawley rats, single dose; type: in vivo; settings: rat, po, analyte EZE in plasma, single dose 100 mg/kg crystalline EZE or equivalent amount of amorphous EZE
Procedure: The pharmacokinetics of crystalline EZE and the amorphous 1 EZE: 3 PVP+2% SLS spray dried powder were studied in male Sprague Dawley rats in the fasted state. Six rats were single-dosed with either 100 mg/kg crystalline EZE or an equivalent amount of the amorphous EZE of Example 2.

[2] = cited from earlier work

O=C1[C@H](CC[C@H](O)c2ccc(F)cc2)[C@@H](c2ccc(O)cc2)N1c1ccc(F)cc1 [crystalline, 1-(4-fluorophenyl)-3(R)-[3-(4-fluorophenyl)-3(S)-hydroxypropyl]-4(S)-(4-hydroxyphenyl)-2-azetidinone]
Cmax [1]: 5.1 ng/mL
Tmax [1]: 8 h
AUC(0-t) ([1]; read-out: AUC0-24 h): 0.0642 µg·h/mL
solubility in water [2]: insoluble in water
